Structures are written as SMILES. Some results are limits rather than exact numbers.

Among the data in patent publication US10544143B2, “4-azaindole compounds” (BRISTOL-MYERS SQUIBB COMPANY, priority 2017, dated 2020) are IC50 values, retold here.

Experiment [1] concerns the target human TLR9 (Homo sapiens (Human), UniProt Q9NR96). As to the kind of experiment: TLR9 inhibition reporter assay (HEK-Blue SEAP).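 Note: SEAP driven by an IFN-β minimal promoter with NF-κB and AP-1 sites, read after 22 h, compounds dosed 0.05 nM–50 µM, inhibition scaled between agonist plus DMSO and reference-inhibitor wells.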 Particulars: read-out: TLR9 IC50; HEK-Blue cells overexpressing human TLR9, SEAP reporter, ODN2006 5 nM.
Experiment [2] concerns the target human TLR8 (Homo sapiens (Human), UniProt Q9NR97). As to the kind of experiment: TLR8 inhibition reporter assay (HEK-Blue SEAP).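 Note: SEAP driven by IFN-β minimal promoter carrying NF-κB and AP-1 sites, compounds dosed 0.05 nM to 50 µM for 22 h, inhibition scaled between agonist-plus-DMSO and reference-inhibitor wells.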 To be noted: read-out: TLR8 IC50; HEK-Blue cells overexpressing human TLR8, SEAP reporter, R848 15.9 μM. Background: Reporter assays use an easily measured gene product as a stand-in for the process of interest.
For experiment [3], the target named is human TLR7 (Homo sapiens (Human), UniProt Q9NYK1). The experiment can be described thus: TLR7 inhibition reporter assay (HEK-Blue SEAP). The format is cell-based. Particulars: HEK-Blue cells overexpressing human TLR7, SEAP reporter, gardiquimod 7.5 μM.
human TLR7, sequence (Q9NYK1 27-1049): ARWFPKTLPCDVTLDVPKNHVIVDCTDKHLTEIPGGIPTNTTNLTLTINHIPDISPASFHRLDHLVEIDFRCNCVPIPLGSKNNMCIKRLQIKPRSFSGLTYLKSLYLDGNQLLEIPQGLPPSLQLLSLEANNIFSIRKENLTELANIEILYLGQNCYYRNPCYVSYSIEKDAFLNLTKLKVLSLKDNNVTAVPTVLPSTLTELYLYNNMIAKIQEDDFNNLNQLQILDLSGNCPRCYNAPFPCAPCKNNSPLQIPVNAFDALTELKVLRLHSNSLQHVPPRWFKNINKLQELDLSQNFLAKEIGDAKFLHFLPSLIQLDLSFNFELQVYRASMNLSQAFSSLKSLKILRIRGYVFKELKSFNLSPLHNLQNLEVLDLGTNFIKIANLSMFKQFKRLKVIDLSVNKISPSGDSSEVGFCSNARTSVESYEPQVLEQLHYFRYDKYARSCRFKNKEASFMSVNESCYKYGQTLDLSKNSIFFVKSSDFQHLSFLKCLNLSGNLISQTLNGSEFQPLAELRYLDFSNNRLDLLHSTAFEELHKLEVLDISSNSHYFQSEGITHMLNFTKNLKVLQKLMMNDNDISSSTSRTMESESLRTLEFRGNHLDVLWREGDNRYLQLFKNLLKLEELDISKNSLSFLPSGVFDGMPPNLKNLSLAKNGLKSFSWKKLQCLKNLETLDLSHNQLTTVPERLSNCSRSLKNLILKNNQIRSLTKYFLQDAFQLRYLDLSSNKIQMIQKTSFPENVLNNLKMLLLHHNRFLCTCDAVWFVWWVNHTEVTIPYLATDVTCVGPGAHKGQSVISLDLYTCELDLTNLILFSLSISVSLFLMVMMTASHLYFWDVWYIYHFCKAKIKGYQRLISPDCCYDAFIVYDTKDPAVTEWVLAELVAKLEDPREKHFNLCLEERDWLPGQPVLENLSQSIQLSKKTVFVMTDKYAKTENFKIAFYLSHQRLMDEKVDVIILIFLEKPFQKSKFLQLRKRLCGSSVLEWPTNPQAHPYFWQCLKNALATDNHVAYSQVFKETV

human TLR9, sequence (Q9NR96 26-1032): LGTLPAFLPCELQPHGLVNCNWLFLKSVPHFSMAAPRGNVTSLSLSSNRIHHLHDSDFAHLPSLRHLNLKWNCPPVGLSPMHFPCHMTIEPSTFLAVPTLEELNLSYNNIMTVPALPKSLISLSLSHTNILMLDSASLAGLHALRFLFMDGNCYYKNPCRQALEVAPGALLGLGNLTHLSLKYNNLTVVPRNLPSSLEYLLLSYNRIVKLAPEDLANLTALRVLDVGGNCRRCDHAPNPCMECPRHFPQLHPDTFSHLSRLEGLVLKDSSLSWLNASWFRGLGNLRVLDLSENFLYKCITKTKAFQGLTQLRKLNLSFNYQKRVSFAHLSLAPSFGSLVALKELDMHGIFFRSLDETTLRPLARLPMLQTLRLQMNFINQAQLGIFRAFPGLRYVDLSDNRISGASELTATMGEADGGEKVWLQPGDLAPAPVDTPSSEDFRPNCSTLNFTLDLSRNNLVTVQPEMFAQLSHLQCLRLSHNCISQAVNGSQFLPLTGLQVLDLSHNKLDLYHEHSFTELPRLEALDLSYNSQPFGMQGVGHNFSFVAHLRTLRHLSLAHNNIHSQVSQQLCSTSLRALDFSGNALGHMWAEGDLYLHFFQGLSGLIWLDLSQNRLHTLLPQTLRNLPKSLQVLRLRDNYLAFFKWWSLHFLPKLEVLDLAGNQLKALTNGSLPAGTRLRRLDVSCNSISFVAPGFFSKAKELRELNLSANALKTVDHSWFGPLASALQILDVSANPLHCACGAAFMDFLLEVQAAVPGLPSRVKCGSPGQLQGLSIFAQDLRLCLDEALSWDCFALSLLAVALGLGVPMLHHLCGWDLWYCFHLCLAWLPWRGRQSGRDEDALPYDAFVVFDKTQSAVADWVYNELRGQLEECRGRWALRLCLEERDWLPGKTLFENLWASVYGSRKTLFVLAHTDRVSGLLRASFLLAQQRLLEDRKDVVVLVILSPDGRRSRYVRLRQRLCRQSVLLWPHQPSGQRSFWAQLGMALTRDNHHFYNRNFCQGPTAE
human TLR8, sequence (Q9NR97 27-1041): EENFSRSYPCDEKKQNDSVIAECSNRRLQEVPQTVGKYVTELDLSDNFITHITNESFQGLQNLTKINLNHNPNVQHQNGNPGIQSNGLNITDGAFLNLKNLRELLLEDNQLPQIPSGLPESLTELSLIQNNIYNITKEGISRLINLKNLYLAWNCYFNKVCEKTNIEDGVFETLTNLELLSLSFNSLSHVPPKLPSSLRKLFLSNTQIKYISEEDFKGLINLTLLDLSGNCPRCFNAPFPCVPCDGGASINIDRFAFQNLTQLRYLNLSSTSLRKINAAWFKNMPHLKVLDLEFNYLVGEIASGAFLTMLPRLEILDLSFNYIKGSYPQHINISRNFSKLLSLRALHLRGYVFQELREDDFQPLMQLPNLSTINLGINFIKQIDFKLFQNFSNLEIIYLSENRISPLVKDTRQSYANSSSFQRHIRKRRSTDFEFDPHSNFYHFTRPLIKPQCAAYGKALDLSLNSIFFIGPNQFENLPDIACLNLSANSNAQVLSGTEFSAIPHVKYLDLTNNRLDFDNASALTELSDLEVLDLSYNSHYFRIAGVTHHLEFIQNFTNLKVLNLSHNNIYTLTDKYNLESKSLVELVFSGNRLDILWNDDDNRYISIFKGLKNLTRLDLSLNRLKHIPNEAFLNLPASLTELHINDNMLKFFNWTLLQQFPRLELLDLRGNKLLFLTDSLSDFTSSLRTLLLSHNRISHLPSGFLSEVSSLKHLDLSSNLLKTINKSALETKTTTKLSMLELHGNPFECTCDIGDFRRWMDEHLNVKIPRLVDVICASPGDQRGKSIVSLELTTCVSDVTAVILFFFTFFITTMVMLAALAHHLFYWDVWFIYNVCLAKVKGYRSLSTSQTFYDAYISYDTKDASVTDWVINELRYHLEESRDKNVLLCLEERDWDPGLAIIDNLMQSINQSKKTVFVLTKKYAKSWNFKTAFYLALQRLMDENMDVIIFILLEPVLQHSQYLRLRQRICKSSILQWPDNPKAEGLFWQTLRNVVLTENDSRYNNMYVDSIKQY

Turning to `CCN(CCS(C)(=O)=O)C1CCC(c2nc3c(C(C)C)c(-c4cn5ncnc5c(C)c4C)[nH]c3cc2F)CC1` (stereo not drawn) [Example 511], the IC50 is above 50000 nM in experiment [1], 4.8 nM in experiment [2] and 5.8 nM in experiment [3].
The like results for `Cc1cc(-c2[nH]c3ccc(C4CCNCC4)nc3c2C(C)C)cc(C)n1` [Example 512] were, in that order, 304 nM, 5.6 nM and 1.1 nM.
In the same order, the values of `CC(C)c1c(-c2ccc(=O)n(C)c2)[nH]c2ccc(C3CCNCC3)nc12` [Example 513] are 545 nM, 307 nM and 319 nM.
The like results for `Cc1cc(-c2[nH]c3ccc(C4CCNCC4)nc3c2C(C)C)nn(C)c1=O` [Example 514] were, in that order, 7110 nM, 44 nM and 38 nM.
`Cc1cc(-c2[nH]c3ccc(C4CCNCC4)nc3c2C(C)C)cn(C)c1=O` [Example 515]: the IC50 in experiment [1] was 223 nM; in experiment [2] it was 21 nM; in experiment [3] it was 7.9 nM.
In the same order, the values of `Cc1cc(-c2[nH]c3ccc(C4CCNCC4)nc3c2C(C)C)cn2ncnc12` [Example 516] are 155 nM, 1.9 nM and 0.22 nM.
Consider `Cc1cc(-c2[nH]c3ccc(C4CCNCC4)nc3c2C(C)C)cn2nnnc12` [Example 517], for which the values for the IC50 in experiment [1], in experiment [2] and in experiment [3] were 150 nM, 6 nM and 1.1 nM, respectively.
The like results for `Cc1cc(-c2[nH]c3ccc(C4CCNCC4)nc3c2C(C)C)cn2cnnc12` [Example 518] were, in that order, 721 nM, 32 nM and 1.6 nM.
Regarding `Cc1c(-c2[nH]c3ccc(C4CCNCC4)nc3c2C(C)C)cn(C)c(=O)c1C` [Example 519], the results for the IC50 in experiment [1], in experiment [2] and in experiment [3] were 362 nM, 12 nM and 8.3 nM, respectively.
In the same order, the values of `COc1cc(-c2[nH]c3ccc(C4CCNCC4)nc3c2C(C)C)cn2ncnc12` [Example 520] are 285 nM, 7 nM and 0.8 nM.
Take `Cc1c(-c2[nH]c3ccc(C4CCNCC4)nc3c2C(C)C)cn2ncnc2c1C` [Example 521]: the IC50 was 238 nM in experiment [1], 1.3 nM in experiment [2] and 0.62 nM in experiment [3].
Take `Cc1cc(-c2[nH]c3cc(C)c(C4CCNCC4)nc3c2C(C)C)cc(C)n1` [Example 522]: the IC50 in experiment [1] amounted to 144 nM; in experiment [2] it was 495 nM; in experiment [3] it was 2.6 nM.
As to `COc1cc(-c2[nH]c3cc(C)c(C4CCNCC4)nc3c2C(C)C)cn2ncnc12` [Example 523], the IC50 is 1470 nM in experiment [1], 147 nM in experiment [2] and 1.2 nM in experiment [3].
Take `COc1cc(-c2[nH]c3cc(F)c(C4CCNCC4)nc3c2C(C)C)cn2ncnc12` [Example 524]: the IC50 in experiment [1] was determined as 407 nM; in experiment [2] it was 6.7 nM; in experiment [3], 0.88 nM.
The like results for `Cc1cc2[nH]c(-c3cc(C)c4ncnn4c3)c(C(C)C)c2nc1C1CCNCC1` [Example 525] were, in that order, 771 nM, 48 nM and 0.18 nM.
For the compound `COc1ccc(-c2[nH]c3ccc(C4CCNCC4)nc3c2C(C)C)cc1OC` [Example 526], the IC50 in experiment [1] was determined as 666 nM; in experiment [2], 14 nM; in experiment [3], 8.8 nM.
The like results for `Cc1cc(-c2[nH]c3ccc(C4CCN(C5CCOCC5)CC4)nc3c2C(C)C)cn(C)c1=O` [Example 527] were, in that order, 1160 nM, 3 nM and 7.3 nM.
As to `Cc1cc(-c2[nH]c3ccc(C4CCN(CC(=O)N(C)C)CC4)nc3c2C(C)C)cn(C)c1=O` [Example 529], the IC50 in experiment [1] was 1830 nM; in experiment [2], 12 nM; in experiment [3], 2.9 nM.
Turning to `CNC(=O)CN1CCC(c2ccc3[nH]c(-c4cc(C)c(=O)n(C)c4)c(C(C)C)c3n2)CC1` [Example 530], the IC50 in experiment [1] turned out to be 4760 nM; in experiment [2], 8.8 nM; in experiment [3], 7.1 nM.
The like results for `Cc1cc(-c2[nH]c3ccc(C4CCN(C(=O)CN(C)C)CC4)nc3c2C(C)C)cn(C)c1=O` [Example 531] were, in that order, 1290 nM, 21 nM and 19 nM.
With `CNC(=O)CN1CCC(c2ccc3[nH]c(-c4cc(C)c5ncnn5c4)c(C(C)C)c3n2)CC1` [Example 532], the IC50 in experiment [1] was determined as 3590 nM; in experiment [2] it was 4.4 nM; in experiment [3], 0.58 nM.
In the same order, the values of `Cc1cc(-c2[nH]c3ccc(C4CCN(CC(=O)N(C)C)CC4)nc3c2C(C)C)cn2ncnc12` [Example 533] are 1460 nM, 3.3 nM and 0.5 nM.
As for `Cc1cc(-c2[nH]c3ccc(C4CCN(C5COC5)CC4)nc3c2C(C)C)cn2ncnc12` [Example 534], the IC50 in experiment [1] turned out to be 4280 nM; in experiment [2], 8 nM; in experiment [3], 1.2 nM.
As to `COc1cc(-c2[nH]c3ccc(C4CCN(C5COC5)CC4)nc3c2C(C)C)cn2ncnc12` [Example 535], the IC50 in experiment [1] was determined as 5720 nM; in experiment [2], 8.6 nM; in experiment [3], 2 nM.
The like results for `CNC(=O)CN1CCC(c2ccc3[nH]c(-c4cc(OC)c5ncnn5c4)c(C(C)C)c3n2)CC1` [Example 536] were, in that order, 2660 nM, 4.1 nM and 0.66 nM.
For the compound `COc1cc(-c2[nH]c3ccc(C4CCN(CC(=O)N(C)C)CC4)nc3c2C(C)C)cn2ncnc12` [Example 537], the IC50 in experiment [1] was found to be 2850 nM; in experiment [2], 7.1 nM; in experiment [3] it was 2.1 nM.
Take `Cc1c(-c2[nH]c3ccc(C4CCN(C5COC5)CC4)nc3c2C(C)C)cn2ncnc2c1C` [Example 538]: the IC50 in experiment [1] came to 8180 nM; in experiment [2], 3.3 nM; in experiment [3], 2 nM.
The like results for `CNC(=O)CN1CCC(c2ccc3[nH]c(-c4cn5ncnc5c(C)c4C)c(C(C)C)c3n2)CC1` [Example 539] were, in that order, 3320 nM, 0.82 nM and 0.47 nM.
The like results for `Cc1c(-c2[nH]c3ccc(C4CCN(CC(=O)N(C)C)CC4)nc3c2C(C)C)cn2ncnc2c1C` [Example 540] were, in that order, 1950 nM, 1.4 nM and 1.1 nM.
Regarding `Cc1c(-c2[nH]c3ccc(C4CCN(CC(C)(C)O)CC4)nc3c2C(C)C)cn2ncnc2c1C` [Example 541], the values for the IC50 in experiment [1], in experiment [2] and in experiment [3] were 1430 nM, 0.36 nM and 1.2 nM, respectively.
For the compound `Cc1c(-c2[nH]c3ccc(C4CCN(C5COC5)CC4)nc3c2C(C)C)cn(C)c(=O)c1C` [Example 542], the IC50 in experiment [1] came out at 9240 nM; in experiment [2] it was 17 nM; in experiment [3], 24 nM.
For `Cc1c(-c2[nH]c3ccc(C4CCN(C5CCOCC5)CC4)nc3c2C(C)C)cn(C)c(=O)c1C` [Example 543], the IC50 in experiment [1] was 2280 nM; in experiment [2], 5.3 nM; in experiment [3], 14 nM.
The like results for `CNC(=O)CN1CCC(c2ccc3[nH]c(-c4cn(C)c(=O)c(C)c4C)c(C(C)C)c3n2)CC1` [Example 544] were, in that order, 5660 nM, 6.4 nM and 11 nM.
For the compound `Cc1c(-c2[nH]c3ccc(C4CCN(CC(=O)N(C)C)CC4)nc3c2C(C)C)cn(C)c(=O)c1C` [Example 545], the values for the IC50 in experiment [1], in experiment [2] and in experiment [3] were 2460 nM, 7.5 nM and 22 nM, respectively.
`Cc1c(-c2[nH]c3ccc(C4CCN(CC(C)(C)O)CC4)nc3c2C(C)C)cn(C)c(=O)c1C` [Example 546]: the IC50 in experiment [1] amounted to 1380 nM; in experiment [2], 1.6 nM; in experiment [3], 9.5 nM.
As for `Cc1cc(-c2[nH]c3ccc(C4CCN(CC(C)(C)O)CC4)nc3c2C(C)C)cn2ncnc12` [Example 547], the IC50 came out at 789 nM in experiment [1], 0.55 nM in experiment [2] and 0.27 nM in experiment [3].
`COc1cc(-c2[nH]c3ccc(C4CCN(CC(C)(C)O)CC4)nc3c2C(C)C)cn2ncnc12` [Example 548]: the IC50 amounted to 1090 nM in experiment [1], 0.98 nM in experiment [2] and 0.71 nM in experiment [3].
In the same order, the values of `COc1cc(-c2[nH]c3ccc(C4CCN(C(=O)CN(C)C)CC4)nc3c2C(C)C)cn2ncnc12` [Example 549] are 401 nM, 18 nM and 1.8 nM.
In the same order, the values of `Cc1cc(-c2[nH]c3ccc(C4CCN(C(=O)CN(C)C)CC4)nc3c2C(C)C)cn2ncnc12` [Example 550] are 796 nM, 15 nM and 0.87 nM.
In the same order, the values of `Cc1c(-c2[nH]c3ccc(C4CCN(C(=O)CN(C)C)CC4)nc3c2C(C)C)cn2ncnc2c1C` [Example 551] are 582 nM, 5.5 nM and 0.94 nM.
As to `Cc1cc(-c2[nH]c3ccc(C4CCN(CCS(C)(=O)=O)CC4)nc3c2C(C)C)cn2ncnc12` [Example 552], the IC50 is 4100 nM in experiment [1], 2.1 nM in experiment [2] and 0.83 nM in experiment [3].
Turning to `Cc1cc(-c2[nH]c3ccc(C4CCN(CC#N)CC4)nc3c2C(C)C)cn2ncnc12` [Example 553], the values for the IC50 in experiment [1], in experiment [2] and in experiment [3] were 537 nM, 3.2 nM and 0.63 nM, respectively.
The like results for `COc1cc(-c2[nH]c3ccc(C4CCN(CCS(C)(=O)=O)CC4)nc3c2C(C)C)cn2ncnc12` [Example 554] were, in that order, 2860 nM, 2.5 nM and 1.5 nM.
`Cc1c(-c2[nH]c3ccc(C4CCN(CCS(C)(=O)=O)CC4)nc3c2C(C)C)cn2ncnc2c1C` [Example 556]: the results for the IC50 in experiment [1], in experiment [2] and in experiment [3] were 5080 nM, 1.1 nM and 1.7 nM, respectively.

As usually defined, the IC50 is the concentration that gives 50% inhibition.
